According to the supplement of paper PMC10307832:

Columns and labels:
Assay in all cases: relative viability (nuclei count vs DMSO), 5 days (fraction); higher = more cells survive
Everolimus + OSI-027 = compound: CO[C@H]1C[C@@H]2CC[C@@H](C)[C@@](O)(O2)C(=O)C(=O)N2CCCC[C@H]2C(=O)O[C@H]([C@H](C)C[C@@H]2CC[C@@H](OCCO)[C@H](OC)C2)CC(=O)[C@H](C)/C=C(\C)[C@@H](O)[C@@H](OC)C(=O)[C@H](C)C[C@H](C)/C=C/C=C/C=C/1C [Everolimus] + COc1cccc2cc(-c3nc([C@H]4CC[C@H](C(=O)O)CC4)n4ncnc(N)c34)[nH]c12 [OSI-027] (partner 0.5 µM)
Method in brief: (§1)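 Relative viability equals treated-well nuclei counts divided by vehicle-well nuclei counts. Counts came from 4× images of lung cancer cell lines grown in 1536-well plates for 5 days after pin-tool dosing on the day after seeding. Dosing used one drug alone or a fixed anchor-drug dose plus five library-drug doses (not always all listed) in √10 steps, and values are medians of duplicate plates.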

Everolimus + Luminespib = compound: CO[C@H]1C[C@@H]2CC[C@@H](C)[C@@](O)(O2)C(=O)C(=O)N2CCCC[C@H]2C(=O)O[C@H]([C@H](C)C[C@@H]2CC[C@@H](OCCO)[C@H](OC)C2)CC(=O)[C@H](C)/C=C(\C)[C@@H](O)[C@@H](OC)C(=O)[C@H](C)C[C@H](C)/C=C/C=C/C=C/1C [Everolimus] + CCNC(=O)c1noc(-c2cc(C(C)C)c(O)cc2O)c1-c1ccc(CN2CCOCC2)cc1 [Luminespib] (partner 0.01 µM)
Method in brief: as §1

Everolimus + Pictilisib = compound: CO[C@H]1C[C@@H]2CC[C@@H](C)[C@@](O)(O2)C(=O)C(=O)N2CCCC[C@H]2C(=O)O[C@H]([C@H](C)C[C@@H]2CC[C@@H](OCCO)[C@H](OC)C2)CC(=O)[C@H](C)/C=C(\C)[C@@H](O)[C@@H](OC)C(=O)[C@H](C)C[C@H](C)/C=C/C=C/C=C/1C [Everolimus] + CS(=O)(=O)N1CCN(Cc2cc3nc(-c4cccc5[nH]ncc45)nc(N4CCOCC4)c3s2)CC1 [Pictilisib] (partner 1 µM)
Method in brief: as §1

Everolimus + Palbociclib = compound: CO[C@H]1C[C@@H]2CC[C@@H](C)[C@@](O)(O2)C(=O)C(=O)N2CCCC[C@H]2C(=O)O[C@H]([C@H](C)C[C@@H]2CC[C@@H](OCCO)[C@H](OC)C2)CC(=O)[C@H](C)/C=C(\C)[C@@H](O)[C@@H](OC)C(=O)[C@H](C)C[C@H](C)/C=C/C=C/C=C/1C [Everolimus] + CC(=O)c1c(C)c2cnc(Nc3ccc(N4CCNCC4)cn3)nc2n(C2CCCC2)c1=O [Palbociclib] (partner 0.5 µM)
Method in brief: as §1

Row | Cell Line | relative viability (Everolimus + OSI-027; first compound 0.01 µM) | relative viability (Everolimus + OSI-027; first compound 0.03162 µM) | relative viability (Everolimus + OSI-027; first compound 0.1 µM) | relative viability (Everolimus + OSI-027; first compound 0.3162 µM) | relative viability (Everolimus + OSI-027; first compound 1 µM) | relative viability (Everolimus + Luminespib; first compound 0.01 µM) | relative viability (Everolimus + Luminespib; first compound 0.03162 µM) | relative viability (Everolimus + Luminespib; first compound 0.1 µM) | relative viability (Everolimus + Luminespib; first compound 0.3162 µM) | relative viability (Everolimus + Luminespib; first compound 1 µM) | relative viability (Everolimus + Pictilisib; first compound 0.01 µM) | relative viability (Everolimus + Pictilisib; first compound 0.03162 µM) | relative viability (Everolimus + Pictilisib; first compound 0.1 µM) | relative viability (Everolimus + Pictilisib; first compound 0.3162 µM) | relative viability (Everolimus + Pictilisib; first compound 1 µM) | relative viability (Everolimus + Palbociclib; first compound 0.01 µM) | relative viability (Everolimus + Palbociclib; first compound 0.03162 µM) | relative viability (Everolimus + Palbociclib; first compound 0.1 µM) | relative viability (Everolimus + Palbociclib; first compound 0.3162 µM) | relative viability (Everolimus + Palbociclib; first compound 1 µM)
1 | NCI-H1975 | 0.496 | 0.498 | 0.45 | 0.473 | 0.436 | 0.158 | 0.169 | 0.194 | 0.191 | 0.287 | 0.223 | 0.242 | 0.194 | 0.211 | 0.199 | 0.481 | 0.398 | 0.524 | 0.454 | 0.358
2 | LK-2 | 0.152 | 0.153 | 0.167 | 0.162 | 0.172 | 0.179 | – | 0.171 | 0.177 | 0.189 | 0.5 | – | 0.37 | 0.322 | 0.386 | 0.536 | 0.312 | 0.321 | 0.314 | 0.33
3 | NCI-H661 | 0.471 | 0.44 | 0.433 | 0.4 | 0.511 | 0.821 | 0.767 | 0.659 | 0.688 | 0.534 | 0.301 | 0.253 | 0.235 | 0.305 | 0.296 | 0.334 | 0.321 | 0.328 | 0.31 | 0.295
4 | NCI-H1648 | 0.247 | 0.252 | 0.268 | 0.281 | 0.257 | – | – | – | – | – | – | – | – | – | – | 0.257 | 0.21 | 0.259 | 0.22 | 0.222
5 | HCC-366 | 0.755 | 0.614 | 0.49 | 0.727 | 0.5 | – | – | – | – | – | 0.116 | 0.0953 | 0.131 | 0.11 | 0.138 | 0.337 | 0.156 | 0.216 | 0.207 | 0.106
6 | HOP-62 | 0.548 | 0.511 | 0.448 | 0.517 | 0.503 | 0.918 | 0.853 | 0.782 | 0.919 | 0.926 | 0.326 | 0.274 | 0.17 | 0.267 | 0.352 | 0.418 | 0.304 | 0.268 | 0.294 | 0.268
7 | NCI-H1703 | – | – | – | – | – | – | – | – | – | – | 0.208 | 0.24 | 0.306 | 0.228 | 0.25 | – | – | – | – | –
8 | NCI-H1944 | 0.365 | 0.305 | 0.294 | 0.358 | 0.326 | 0.436 | 0.447 | 0.374 | 0.429 | 0.345 | 0.315 | 0.314 | 0.248 | 0.31 | 0.284 | 0.214 | 0.195 | 0.196 | 0.23 | 0.202
9 | SW 1573 | 0.42 | 0.309 | 0.352 | 0.345 | 0.365 | 0.172 | 0.181 | 0.359 | 0.215 | 0.216 | 0.303 | 0.341 | 0.28 | 0.304 | 0.249 | 0.237 | 0.201 | 0.175 | 0.224 | 0.225
10 | LU99A | 0.234 | 0.243 | 0.245 | 0.248 | 0.241 | 0.226 | 0.204 | 0.185 | 0.191 | 0.253 | 0.213 | 0.212 | 0.212 | 0.194 | 0.249 | 0.242 | 0.237 | 0.234 | 0.203 | 0.243
11 | NCI-H647 | 0.363 | 0.401 | 0.343 | 0.449 | 0.489 | 0.11 | 0.143 | 0.111 | 0.107 | 0.142 | 0.261 | 0.299 | 0.215 | 0.213 | 0.256 | 0.194 | 0.231 | 0.159 | 0.137 | 0.219
12 | EBC-1 | – | – | – | – | – | – | – | – | – | – | 0.199 | 0.193 | 0.221 | 0.227 | 0.222 | – | – | – | – | –
13 | SW 900 | 0.317 | 0.273 | 0.25 | 0.35 | 0.244 | 0.173 | 0.174 | 0.165 | 0.154 | 0.169 | – | – | – | – | – | 0.445 | 0.331 | 0.406 | 0.383 | 0.318
14 | NCI-H522 | 0.658 | 0.501 | 0.617 | 0.621 | 0.591 | 0.841 | 0.631 | 0.767 | 0.738 | 0.811 | – | – | – | – | – | 0.793 | 0.701 | 0.62 | 0.603 | 0.597
15 | NCI-H596 | 0.506 | 0.471 | 0.417 | 0.45 | 0.457 | 0.636 | 0.5 | 0.379 | 0.533 | 0.519 | 0.313 | 0.337 | 0.348 | 0.354 | 0.333 | – | – | – | – | –
16 | NCI-H1563 | 0.628 | 0.645 | 0.622 | 0.693 | 0.643 | 0.54 | 0.479 | 0.548 | 0.501 | 0.496 | 0.664 | 0.672 | 0.632 | 0.676 | 0.646 | – | – | – | – | –
17 | NCI-H1299 | – | – | – | – | – | – | – | – | – | – | 0.54 | 0.537 | 0.512 | 0.386 | 0.528 | – | – | – | – | –
18 | NCI-H2342 | 0.501 | 0.456 | 0.431 | 0.515 | 0.547 | 0.668 | 0.496 | 0.426 | 0.46 | 0.553 | – | – | – | – | – | 0.48 | 0.407 | 0.493 | 0.44 | 0.463
19 | A549 | – | – | – | – | – | – | – | – | – | – | 0.16 | 0.178 | 0.166 | 0.182 | 0.192 | – | – | – | – | –
20 | IA-LM | – | – | – | – | – | – | – | – | – | – | 0.211 | 0.162 | 0.137 | 0.158 | 0.104 | – | – | – | – | –
21 | Calu-6 | – | – | – | – | – | – | – | – | – | – | 0.573 | 0.566 | 0.559 | 0.527 | 0.592 | – | – | – | – | –
